Results: US8580843B2, “Use of diindolylmethane (DIM) compounds and derivatives as neuroprotective agents” (Colorado State University Research Foundation, priority 2008, dated 2013)

How the values were obtained:
[1] = tested on: NF-κB; assay: NF-κB EGFP reporter live-cell imaging in cis-NF-κB-EGFP transgenic astrocytes; format: cell-based, mouse; settings: 10 μM, FIG. 4B
Excerpt: NF-κB reporter assays in cis-NF-κB^EGFP transgenic astrocytes and expression of mutant IκBα. To measure activation of NF-κB in live cell, astrocytes were isolated from a unique transgenic mouse expressing a reporter construct consisting of three HIV NF-κB consensus elements inserted 5′ to a minimal c-fos promoter that drives expression of enhanced green fluorescent protein (EGFP) (Magness et al., 2004) (Provided by Dr. Christian Jobin, University of North Carolina at Chapel Hill). NF-κB activity was determined by live-cell imaging using a Zeiss 20× air PlanApochromat objective using SlideBook v4.2 (Intelligent Imaging Innovations, Inc., Denver, Colo.). […] This approach was consistent between all replicates. At least four microscopic fields were examined per treatment group in each of at least three independent experiments, and reported as percent activated cells 8 hours following treatments. […]
A wide array of inflammatory genes, including Nos2, are driven by the NF-κB signaling cascade. […] Real-time imaging of GFP fluorescence was performed in control transgenic astrocytes exposed to saline and in cells exposed to MPTP and TNF-α/IFN-γ in combination with DIM-C-pPhtBu (10 μM), rosiglitazone (10 μM), or DMSO. […]

[2] = tested on: proximal NF-κB enhancer element of the Nos2 promoter; assay: Chromatin immunoprecipitation (ChIP) at the proximal NF-κB enhancer element of the Nos2 promoter in astrocytes; format: cell-based, mouse; settings: 10 μM co-treatment; FIG. 5
Procedure: Chromatin Immunoprecipitation (ChIP). ChIP procedures were adapted from a previously published report (Weinmann and Farnham, 2002) and optimized for primary astrocytes according to recent studies from our laboratory. Astrocytes were grown to confluence in 10 cm plates (Approx. 8.8×10^6 cells) and were treated for 3 hours with MPTP (10 μM), TNF-α (10 pg/ml) and IFN-γ (1 ng/ml) with or without DIM-C-pPhtBu (10 μM), rosiglitazone (10 μM) or a DMSO vehicle control for 3 hours prior to analysis. DNA was sheared into approximate 500 bp fragments by three ten-second pulses using a Tekmar Sonic Disrupter (Tekmar Co., Cincinnati, Ohio) set at 30% output, followed by collection of 10% input controls and addition of 2 μg precipitating antibody. Immune complexes were allowed to form overnight at 4° C. with gentle agitation, followed by the addition of protein-G magnetic beads (Active Motif, Carlsbad, Calif.) for an additional 90 min. Immunopurified DNA was isolated via phenol/chloroform extraction and subject to PCR using primers designed around the proximal murine Nos2 NF-κB binding region (Xie et al., 1992) (forward: 5′-ATGGCCTTGCATGAGGATACACCA-3′ Chromatin Immunoprecipitation (ChIP). ChIP procedures were adapted from a previously published report (Weinmann and Farnham, 2002) and optimized for primary astrocytes according to recent studies from our laboratory. Astrocytes were grown to confluence in 10 cm plates (Approx. 8.8×10^6 cells) and were treated for 3 hours with MPTP (10 μM), TNF-α (10 pg/ml) and IFN-γ (1 ng/ml) with or without DIM-C-pPhtBu (10 μM), rosiglitazone (10 μM) or a DMSO vehicle control for 3 hours prior to analysis. DNA was sheared into approximate 500 bp fragments by three ten-second pulses using a Tekmar Sonic Disrupter (Tekmar Co., Cincinnati, Ohio) set at 30% output, followed by collection of 10% input controls and addition of 2 μg precipitating antibody. Immune complexes were allowed to form overnight at 4° C. with gentle agitation, followed by the addition of protein-G magnetic beads (Active Motif, Carlsbad, Calif.) for an additional 90 min. Immunopurified DNA was isolated via phenol/chloroform extraction and subject to PCR using primers designed around the proximal murine Nos2 NF-κB binding region (Xie et al., 1992) (forward: 5′-ATGGCCTTGCATGAGGATACACCA-3′(SEQ ID NO:5); reverse: 5′-GAGTCTCAGTCTTCAACTCCCTGT-3′(SEQ ID NO:6)). Amplicons were separated by 2% agarose gel electrophoresis and stained with ethidium bromide.
To determine the mechanism by which DIM-C-pPhtBu modulates NF-κB activity, the ChIP assay was used to identify specific DNA-protein interactions at the proximal NF-κB enhancer element (-86 to -76) of the Nos2 promoter.
Primary cultured astrocytes were treated with MPTP and TNF/IFN in the presence or absence of DIM-C-pPhOCH3 (DIMS, 1 uM) or rosiglitazone (Ro, 10 uM) and cellular lysates subjected to chromatin immunoprecipitation (ChIP) assay for HDAC3 association with the proximal NF-kB binding site in the Nos2 promoter. HDAC3 is a transcriptional co-repressor of Nos2 gene expression.

Row | SMILES | Suppression of MPTP+TNF-α/IFN-γ induced increase in total cellular GFP fluorescence (NF-κB activity) [1] | Binding of p65 to the Nos2 promoter induced by MPTP and cytokines [2] | Recruitment of PPAR-γ to the proximal NF-κB response element [2] | Stabilization of NCoR2 at the proximal NF-κB response element [2]
1 | CC(C)(C)c1ccc(C(c2c[nH]c3ccccc23)c2c[nH]c3ccccc23)cc1 [DIM-C-pPhtBu, 1,1-bis(3′-indolyl)-1-(p-t-butylphenyl)methane] | completely suppressed | blocked | did not recruit PPAR-γ | nor did it stabilize NCoR2
2 | CN(CCOc1ccc(CC2SC(=O)NC2=O)cc1)c1ccccn1 (stereo not shown) [rosiglitazone, 5-((4-(2-(methyl-2-pyridinylamino)ethoxy)phenyl)methyl)-2,4-thiazolidinedione, reference compound] | completely suppressed | – | recruited PPAR-γ | prevented degradation of NCoR2
